Test results as given in patent US4605744A, “Imidazole derivatives” (Hoffmann-La Roche Inc., priority 1985, dated 1986).
Where a name gives a salt, the structure may show the parent alone.

Key:
Assay in all cases: In vitro antibacterial activity (MIC)
Format in all cases: cell-based
C. freundii 8ASM = conditions: Citrobacter freundii, 8ASM, C. freundii 8ASM; read-out: MIC
Procedure, shortened: (§1)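 Broth microdilution in Mueller-Hinton broth, drug range 128 to 0.008 μg/ml; each well inoculated with 1.5 μl of a 10^-2 dilution of overnight culture. Sealed trays incubated overnight at 37° C. MIC is the lowest concentration showing no visible growth.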

C. freundii CDC6 = conditions: Citrobacter freundii, CDC6, C. freundii CDC6; read-out: MIC
Procedure, shortened: as §1

E. aerogenes 503-478 = conditions: Klebsiella aerogenes, 503478, E. aerogenes 503-478; read-out: MIC
Procedure, shortened: as §1

E. aerogenes 83 = conditions: Klebsiella aerogenes, 83, E. aerogenes 83; read-out: MIC
Procedure, shortened: as §1

E. aerogenes 8 = conditions: Klebsiella aerogenes; E. aerogenes 8; read-out: MIC
Procedure, shortened: as §1

E. cloacae 24 = conditions: Enterobacter cloacae, 24, E. cloacae 24; read-out: MIC
Procedure, shortened: as §1

E. cloacae 6951 = conditions: Enterobacter cloacae, 6951, E. cloacae 6951; read-out: MIC
Procedure, shortened: as §1

E. cloacae 9570A = conditions: Enterobacter cloacae, read-out: MIC
Procedure, shortened: as §1

E. coli 387-1 = conditions: Escherichia coli, 3871, E. coli 387-1; read-out: MIC
Procedure, shortened: as §1

E. coli 4 = conditions: Escherichia coli, 4, E. coli 4; read-out: MIC
Procedure, shortened: as §1

E. coli 503-455 = conditions: Escherichia coli, 503455, E. coli 503-455; read-out: MIC
Procedure, shortened: as §1

E. coli R-563 = conditions: Escherichia coli, R563, E. coli R-563; read-out: MIC
Procedure, shortened: as §1

K. pneumoniae 35 = conditions: Klebsiella pneumoniae; K. pneumoniae 35; read-out: MIC
Procedure, shortened: as §1

K. pneumoniae 4964 = conditions: Klebsiella pneumoniae, 4964, K. pneumoniae 4964; read-out: MIC
Procedure, shortened: as §1

K. pneumoniae 503-964 = conditions: Klebsiella pneumoniae, 503964; K. pneumoniae 503-964; read-out: MIC
Procedure, shortened: as §1

K. pneumoniae 5096 = conditions: Klebsiella pneumoniae; K. pneumoniae 5096; read-out: MIC
Procedure, shortened: as §1

K. pneumoniae 8357 = conditions: Klebsiella pneumoniae, 8357, K. pneumoniae 8357; read-out: MIC
Procedure, shortened: as §1

K. pneumoniae A = conditions: Klebsiella pneumoniae, K. pneumoniae A; read-out: MIC
Procedure, shortened: as §1

K. pneumoniae HE7 = conditions: Klebsiella pneumoniae; K. pneumoniae HE7; read-out: MIC
Procedure, shortened: as §1

P. aeruginosa 503-56 = conditions: Pseudomonas aeruginosa, 50356, P. aeruginosa 503-56; read-out: MIC
Procedure, shortened: as §1

P. aeruginosa 8710 = conditions: Pseudomonas aeruginosa; P. aeruginosa 8710; read-out: MIC
Procedure, shortened: as §1

P. aeruginosa POW 151 = conditions: Pseudomonas aeruginosa, POW151
Procedure, shortened: as §1

P. aeruginosa Stone 130 = conditions: Pseudomonas aeruginosa, STONE130, read-out: MIC
Procedure, shortened: as §1

P. mirabilis 190 = conditions: Proteus mirabilis, 190, P. mirabilis 190; read-out: MIC
Procedure, shortened: as §1

P. mirabilis 503-1136 = conditions: Proteus mirabilis, 5031136, P. mirabilis 503-1136; read-out: MIC
Procedure, shortened: as §1

P. mirabilis 620A = conditions: Proteus mirabilis, 620A, P. mirabilis 620A; read-out: MIC
Procedure, shortened: as §1

P. rettgeri ATCC 9250 = conditions: Providencia rettgeri, ATCC9250, P. rettgeri ATCC 9250; read-out: MIC
Procedure, shortened: as §1

P. vulgaris 101 = conditions: Proteus vulgaris, 101, P. vulgaris 101; read-out: MIC
Procedure, shortened: as §1

P. vulgaris ATCC 6380 = conditions: Proteus vulgaris, ATCC6380, P. vulgaris ATCC 6380; read-out: MIC
Procedure, shortened: as §1

S. aureus 1059B = conditions: Staphylococcus aureus, read-out: MIC
Procedure, shortened: as §1

S. aureus Giorgio = conditions: Staphylococcus aureus, S. aureus Giorgio; read-out: MIC
Procedure, shortened: as §1

S. aureus Smith = conditions: Staphylococcus aureus, S. aureus Smith; read-out: MIC
Procedure, shortened: as §1

S. faecalis C1 = conditions: Enterococcus faecalis; S. faecalis C1; read-out: MIC
Procedure, shortened: as §1

S. marcescens 5805 = conditions: Serratia marcescens, 5805, S. marcescens 5805; read-out: MIC
Procedure, shortened: as §1

S. marcescens S147 = conditions: Serratia marcescens; S. marcescens S147; read-out: MIC
Procedure, shortened: as §1

S. marcescens S1 = conditions: Serratia marcescens, S1, S. marcescens S1; read-out: MIC
Procedure, shortened: as §1

S. marcescens S2 = conditions: Serratia marcescens; S. marcescens S2; read-out: MIC
Procedure, shortened: as §1

S. marcescens S3 = conditions: Serratia marcescens; S. marcescens S3; read-out: MIC
Procedure, shortened: as §1

S. marcescens S4 = conditions: Serratia marcescens, S4, S. marcescens S4; read-out: MIC
Procedure, shortened: as §1

S. marcescens SM = conditions: Serratia marcescens, read-out: MIC
Procedure, shortened: as §1

S. pneumoniae 6301 = conditions: Streptococcus pneumoniae, 6301, S. pneumoniae 6301; read-out: MIC
Procedure, shortened: as §1

S. pneumoniae SC = conditions: Streptococcus pneumoniae, read-out: MIC
Procedure, shortened: as §1

S. pyogenes 4 = conditions: Streptococcus pyogenes, 4, S. pyogenes 4; read-out: MIC
Procedure, shortened: as §1

S. pyogenes 503-782 = conditions: Streptococcus pyogenes, 503782; S. pyogenes 503-782; read-out: MIC
Procedure, shortened: as §1

S. typhi P58A = conditions: Salmonella enterica, TYPHI
Procedure, shortened: as §1

Cc1nc(C)n(CCCC2CCN(C=N[C@@H]3C(=O)N4[C@@H]3SC(C)(C)[C@@H]4C(=O)O)CC2)c1C [E, [2S-(2alpha,5alpha,6beta)]-6[[4-[3-[(2,4,5-trimethyl-1H-imidazol-1-yl)propyl]-1-piperidinyl]methylene]amino]-3,3-dimethyl-7-oxo-4-thia-1-azabicyclo[3.2.0]heptane-2-carboxylic acid hydrate hydrochloride]
MIC (C. freundii 8ASM): < 0.008 µg/mL
MIC (C. freundii CDC6): 0.125 µg/mL
MIC (E. aerogenes 503-478): 1 µg/mL
MIC (E. aerogenes 83): 0.5 µg/mL
MIC (E. aerogenes 8): 32 µg/mL
MIC (E. cloacae 24): 0.5 µg/mL
MIC (E. cloacae 6951): 8 µg/mL
MIC (E. cloacae 9570A): 0.125 µg/mL
MIC (E. coli 387-1): 4 µg/mL
MIC (E. coli 4): 4 µg/mL
MIC (E. coli 503-455): 2 µg/mL
MIC (E. coli R-563): 4 µg/mL
MIC (K. pneumoniae 35): 0.125 µg/mL
MIC (K. pneumoniae 4964): 1 µg/mL
MIC (K. pneumoniae 503-964): 0.062 µg/mL
MIC (K. pneumoniae 5096): > 128 µg/mL
MIC (K. pneumoniae 8357): 0.062 µg/mL
MIC (K. pneumoniae A): 0.062 µg/mL
MIC (K. pneumoniae HE7): > 128 µg/mL
MIC (P. aeruginosa 503-56): > 128 µg/mL
MIC (P. aeruginosa 8710): > 128 µg/mL
MIC (P. aeruginosa POW 151): > 128 µg/mL
MIC (P. aeruginosa Stone 130): > 128 µg/mL
MIC (P. mirabilis 190): 0.25 µg/mL
MIC (P. mirabilis 503-1136): 4 µg/mL
MIC (P. mirabilis 620A): 128 µg/mL
MIC (P. rettgeri ATCC 9250): 0.5 µg/mL
MIC (P. vulgaris 101): 4 µg/mL
MIC (P. vulgaris ATCC 6380): 0.062 µg/mL
MIC (S. aureus 1059B): 64 µg/mL
MIC (S. aureus Giorgio): 8 µg/mL
MIC (S. aureus Smith): 8 µg/mL
MIC (S. faecalis C1): 128 µg/mL
MIC (S. marcescens 5805): 0.5 µg/mL
MIC (S. marcescens S147): 0.5 µg/mL
MIC (S. marcescens S1): 1 µg/mL
MIC (S. marcescens S2): 0.5 µg/mL
MIC (S. marcescens S3): 0.25 µg/mL
MIC (S. marcescens S4): 0.5 µg/mL
MIC (S. marcescens SM): 0.125 µg/mL
MIC (S. pneumoniae 6301): 1 µg/mL
MIC (S. pneumoniae SC): 0.5 µg/mL
MIC (S. pyogenes 4): 0.5 µg/mL
MIC (S. pyogenes 503-782): 128 µg/mL
MIC (S. typhi P58A): 0.062 µg/mL
